According to publication PMC10906247, “From Functional Fatty Acids to Potent and Selective Natural-Product-Inspired Mimetics via Conformational Profiling” (ACS Central Science, 2024):
Several values for one entry are separate records, joined by “and”; a condition that tells them apart may be missing. Equal entries are not always repeated. Where two headings read alike, the source gives them in different places. One block for each molecule: values may come before it.

Experiments:
[1] = molecular target: T1, TLX ligand binding domain (Homo sapiens, UniProt Q9Y466); test: TLX ligand sensing assay (AlphaScreen, RIP140 NR box peptide recruitment); type: biochemical
T1 construct: purchased NovAliX SAS, Strasbourg, France
T1 sequence (Q9Y466 155-383 limits assumed): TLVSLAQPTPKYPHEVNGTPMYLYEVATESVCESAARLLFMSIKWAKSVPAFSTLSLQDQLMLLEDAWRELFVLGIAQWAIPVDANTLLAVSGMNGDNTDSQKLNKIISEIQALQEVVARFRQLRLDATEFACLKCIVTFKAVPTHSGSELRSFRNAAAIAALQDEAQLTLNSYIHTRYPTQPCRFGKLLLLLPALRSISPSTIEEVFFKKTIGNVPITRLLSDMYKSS

[2] = molecular target: GPR40 (FFAR1) (Homo sapiens, UniProt O14842); test: PathHunter β-arrestin assay (Eurofins Discovery), GPR40; type: cell-based; conditions: for EC50 / GPR40 max. efficacy: dose-response; for EC50: β-arrestin assay, read-out: GPR40 EC50 measured; for GPR40 max. efficacy: oleic acid = 100; for GPR40 potency relative to oleic acid: EC50 ratio vs control oleic acid
Chain of GPR40 (FFAR1) (O14842 whole entry): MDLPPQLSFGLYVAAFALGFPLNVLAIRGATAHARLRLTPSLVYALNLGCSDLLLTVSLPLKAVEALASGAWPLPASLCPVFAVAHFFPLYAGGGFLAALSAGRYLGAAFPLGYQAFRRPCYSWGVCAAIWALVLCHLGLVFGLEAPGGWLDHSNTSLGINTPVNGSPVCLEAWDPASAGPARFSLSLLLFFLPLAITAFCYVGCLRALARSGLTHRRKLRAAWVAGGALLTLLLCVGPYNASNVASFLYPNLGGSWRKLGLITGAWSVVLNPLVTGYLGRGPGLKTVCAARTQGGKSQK
Description: (§1) With these compounds in hand, attention was directed at evaluating their properties as ligands to GPR40, GPR120,[24] and TLX. Initial profiling experiments were conducted targeting the GPCR targets at a single concentration (15 μM) in a commercially available β-arrestin assay.
(§2) Functional assays at GPR40 and GPR120 were conducted by Eurofins Discovery services using their PathHunter® b-Arrestin assay that monitors the activation of a GPCR in a homogenous, non-imaging assay format using a technology developed by DiscoverX called Enzyme Fragment Complementation (EFC) with b-galactosidase (b-Gal) as the functional reporter. b-Arrestin GPCR cell lines built on the principles of EFC are engineered to co-express the ProLinkTM (PK) tagged GPCR and the Enzyme Acceptor (EA) tagged b-Arrestin. Activation of the GPCR-PK induces b-Arrestin-EA recruitment, forcing complementation of the two b-galactosidase enzyme fragments (EA and PK). The resulting functional enzyme hydrolyzes substrate to generate chemiluminescent […]
(§3) Additional information can be found at: www.eurofinsdiscovery.com/solution/b-arrestin Below are dose-response curves generated from Eurofins Discovery services for activity of ligands depicted in Figure 6B at GPR40 (FFAR1) and GPR120. […]

[3] = molecular target: T2, GPR120 (Homo sapiens, UniProt Q5NUL3); test: PathHunter β-arrestin assay (Eurofins Discovery), GPR120; type: cell-based; conditions: for EC50: β-arrestin assay, read-out: GPR120 EC50 measured; for GPR120 max. efficacy: oleic acid = 100
T2 sequence (Q5NUL3 1-361): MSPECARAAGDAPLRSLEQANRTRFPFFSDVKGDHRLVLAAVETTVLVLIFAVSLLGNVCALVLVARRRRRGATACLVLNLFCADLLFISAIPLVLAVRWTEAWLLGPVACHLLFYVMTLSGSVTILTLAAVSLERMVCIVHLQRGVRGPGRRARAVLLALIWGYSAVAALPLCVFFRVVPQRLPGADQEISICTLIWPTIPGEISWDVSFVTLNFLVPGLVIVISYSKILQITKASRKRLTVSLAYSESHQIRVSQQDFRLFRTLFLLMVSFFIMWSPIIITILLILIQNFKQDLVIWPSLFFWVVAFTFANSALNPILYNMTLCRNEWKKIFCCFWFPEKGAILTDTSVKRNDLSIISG
Description: as §1, §2, §3

[4] = Metabolic stability / intrinsic clearance in cryopreserved human hepatocytes
Description: To gain insight into potential metabolic issues, a preliminary assessment of 1-E and 3-C in a metabolic stability assay utilizing human hepatocytes was conducted.
7.1. ADME-Tox: In Vitro Metabolism
Intrinsic clearance (cr yopreserved hepatocytes, human)
Note: Unit of Clint is µ L/min/mg for microsomes, S9 and UGT assa ys; µL/min/pmol for CYP assays; µ L/min/Million cells for hepatocyte assays […]
8.1. Experimental Conditions
8.1.1. ADME-Tox: In Vitro Metabolism
8.2. Analysis and expression of results
8.2.1. ADME-Tox: In Vitro Metabolism
Intrinsic Clearance (microsomes, S9, cryopreserved hepatocytes, reco mbinant CYP, recombinant UGT) Metabolic stability, expressed as percent of the parent compound remaining , was calculated by comparing the peak area of the compound at the time point relative to that at time -0. The ha lf-life (T1/2) was estimated from the slope of the initial linear range of the logarithmic curve of compound remaining (%) vs. time, assu ming the first -order kinetics. The apparent intrinsic cleara nce (CLint, in µL/min/pmol, µL/min/mg or µL/min/Mcell ) was calculated according to the following formula: […]
T1/2*(mg protein/µL or million cells/µL or pmol CYP iso zyme/µL)

[5] = ALPHA normalized, supplement, read-out: TLX EC50 (dose-response curves)
[6] = maximal efficacy measured at 100 μM
[7] = human, cryopreserved human hepatocytes, Half-life (mean), human hepatocytes, 1.0E-06 M
[8] = human, cryopreserved human hepatocytes, Half-life, single replicates (1st, 2nd, 3rd), human hepatocytes, 1.0E-06 M

EC50 [1, 5]: 2510 nM
Compound: CCCCCCCC/C=C(/C)C/C(C)=C/[C@H](C)CCCC(=O)O [2-A]

EC50 [2]: 7200 nM
GPR40 max. efficacy [2]: 123%
EC50 ([3]; dose-response): > 42000 nM
GPR120 max. efficacy [3, 6]: 31%
EC50 [1, 5]: 1870 nM
Compound: CCCCCCCCC[C@H](C)/C=C(/C)C/C(C)=C/[C@@H](C)CC(=O)O [1-F]

GPR40 potency relative to oleic acid [2]: ~7 times
EC50 [2]: 5500 nM and ~5000 nM
GPR40 max. efficacy [2]: 87%
EC50 ([3]; dose-response): ≥ 7500 nM and 1000 to 7000 nM
GPR120 max. efficacy [3, 6]: 44%
EC50 [1, 5]: 1320 nM
Compound: CCCCCCC[C@@H](C)/C=C(/C)C/C(C)=C/[C@@H](C)CCCC(=O)O [2-D]

EC50 [1, 5]: 2360 nM
Compound: CCCCCCCCCC/C=C(/C)C/C(C)=C/[C@@H](C)CC(=O)O [1-B]

half-life at 1 µM [4, 7]: 3.12 h
half-life at 1 µM [4, 8]: 3.25 h
Compound: CC(C)NCC(O)COc1cccc2ccccc12 (stereo not shown) [Propanolol, Propranolol, reference compound]

EC50 [1, 5]: 1560 nM
Compound: CCCCCCC[C@H](C)/C=C(/C)C/C(C)=C/[C@@H](C)CCCC(=O)O [2-F]

EC50 [1, 5]: 934 nM
EC50 ([1]; coactivator recruitment, read-out: TLX EC50): 900 nM
TLX max. efficacy ([1]; oleic acid = 100): 79%
Compound: CCCCCC/C=C(/C)C/C(C)=C/[C@@H](C)CCCCCC(=O)O [3-B]

EC50 [1, 5]: 3170 nM
Compound: CCCCCCCCC[C@@H](C)/C=C(/C)C/C(C)=C/[C@@H](C)CC(=O)O [1-D]

Compound: C=CCN1CC[C@]23c4c5ccc(O)c4O[C@H]2C(=O)CC[C@@]3(O)[C@H]1C5 [Naloxone, reference compound]
Half-life, single replicates (1st, 2nd, 3rd) ([4]; human hepatocytes, 1.0E-06 M): 1.47 h and 1.852 h
hepatocyte CLint at 1 µM ([4]; human, cryopreserved human hepatocytes): 10.1 µL/min/1e6 cells
half-life at 1 µM [4, 7]: 1.65 h
half-life at 1 µM [4, 8]: 1.61 h

EC50 [1, 5]: 959 nM
Compound: CCCCC[C@H](C)/C=C(/C)C/C(C)=C/[C@H](C)CCCCCC(=O)O [3-E]

activity against GPR120 ([3]; from Figure 6A, 15 μM): inactive
EC50 [1, 5]: 1530 nM
Compound: CCC[C@@H](C)/C=C(/C)C/C(C)=C/[C@H](C)CCCCCCCC(=O)O [4-C]

Compound: O=c1cc(C(F)(F)F)c2ccc(O)cc2o1 [HFC, reference compound]
CLint ([4]; human hepatocytes, 1.0E-06 M): 47.3 μL/min/million cells
Half-life (mean) ([4]; human hepatocytes, 1.0E-06 M): 0.35 h
Half-life, single replicates (1st, 2nd, 3rd) ([4]; human hepatocytes, 1.0E-06 M): 0.348 h and 0.352 h and 0.347 h

EC50 [1, 5]: 1570 nM
Compound: CCC[C@@H](C)/C=C(/C)C/C(C)=C/[C@@H](C)CCCCCCCC(=O)O [4-D]

GPR40 potency relative to oleic acid [2]: ~7 times
EC50 [2]: 6200 nM and ~5000 nM
GPR40 max. efficacy [2]: 95%
EC50 ([3]; dose-response): 2600 nM
GPR120 max. efficacy ([3]; dose-response): 31%
EC50 [1, 5]: 1510 nM
Compound: CCCCCCC[C@@H](C)/C=C(/C)C/C(C)=C/[C@H](C)CCCC(=O)O [2-C]
